Reference: US10087449B2, “Pharmaceutical composition for treating chronic kidney disease” (SHIONOGI & CO., LTD., priority 2014, dated 2018)

Tests used:
NRK49F cells = experiment: TGFβ stimulation of NRK49F rat kidney fibroblasts, gene expression by quantitative PCR; type: cell-based
Description: Effect of stimulation by TGFβ, known as a promoting factor of fibrosis (Refer to Nephrol Dial Transplant., 1998, vol. 13, p. 573-579), on gene expression of NNMT, COL1A1, COL3A1 and COL4A1 was examined using NRK49F cells that are rat kidney fibroblasts. NRK49F cells were seeded into 12 well plates at 4×10^4 cells/well/mL and culture medium was changed to serum-free medium after 72 hr. Recombinant human TGFβ1 (R & D Co., Ltd., 5 ng/mL) was added after 24 hr and the cells were cultured for 6, 24 and 48 hr. After culture, total RNA was extracted from cells and the gene expression levels of NNMT, COL1A1, COL3A1 and COL4A1 were analyzed by quantitative PCR.
(§1) The siRNA of NNMT was introduced into NRK49F cells, rat kidney fibroblast cell line, the effect of which on enhanced gene expression of COL1A1, COL3A1 and COL4A1 by TGFβ stimulation was examined (FIG. 4). After NRK49F cells were seeded into 12 well plates at 4×10^4 cells/well/mL and culture for 72 hr, culture medium was changed to antibiotic-free medium and siRNA sequence (F; […] (SEQ ID NO: 2), R; […] (SEQ ID NO: 3)) for rat NNMT purchased was introduced into cells for 24 hr by lipofection method using RNAiMAX (Invitrogen Corp.) which is an introduction reagent of siRNA. Next, culture medium was changed to serum-free medium and after 24 hr, human recombinant TGFβ (R & D Co., Ltd., 5 ng/mL) was added and cultured for 48 hr. After culture, total RNA was extracted from cells and the gene expression levels of NNMT, COL1A1, COL3A1 and COL4A1 were analyzed by quantitative PCR.

rat NNMT = experiment: siRNA knock-down of NNMT gene expression in TGFβ-stimulated NRK49F cells (quantitative PCR); type: cell-based; conditions: TGFβ 5 ng/mL, 48 hr
Description: as §1

[1] = system: gene expression of COL1A1, COL3A1 and COL4A1 in NRK49F cells; experiment: Effect of NNMT siRNA on collagen gene expression enhanced by TGFβ in NRK49F cells (quantitative PCR); type: cell-based, rat; conditions: TGFβ 5 ng/mL, 48 hr
Description: as §1

TGFβ1: Recombinant human TGFβ1 (R & D Co., Ltd.), promoting factor of fibrosis used as stimulus
increase in gene expression of COL1A1 (NRK49F cells; TGFβ 5 ng/mL, 48 hr): 7.1 fold | increase in gene expression of COL3A1 (NRK49F cells; TGFβ 5 ng/mL, 48 hr): 6.5 fold | increase in gene expression of COL4A1 (NRK49F cells; TGFβ 5 ng/mL, 48 hr): 3.1 fold | increase in gene expression of NNMT (NRK49F cells; TGFβ 5 ng/mL, 48 hr): about 3.6 fold | gene expression level of COL1A1 over time (NRK49F cells; TGFβ1 5 ng/mL, 6, 24 and 48 hr): time-dependent increases | gene expression level of COL3A1 over time (NRK49F cells; TGFβ1 5 ng/mL, 6, 24 and 48 hr): time-dependent increases | gene expression level of NNMT over time (NRK49F cells; TGFβ1 5 ng/mL, 6, 24 and 48 hr): time-dependent increases | gene expression of COL4A1 over time (NRK49F cells; TGFβ1 5 ng/mL, 6, 24 and 48 hr): reached the maximum level in 6 hr and left the plateau to 24 hr

siRNA of NNMT: siRNA for rat NNMT, purchased; F CCACAUCCAAUAAUGAAGGACUCUU (SEQ ID NO: 2), R AAGAGUCCUUCAUUAUUGGAUGUGG (SEQ ID NO: 3) (listed as RNA, chemistry not given here)
knock-down of gene expression of NNMT (rat NNMT; siRNA 0.01 nM): 23% | knock-down of gene expression of NNMT (rat NNMT; siRNA 0.1 nM): 45% | knock-down of gene expression of NNMT (rat NNMT; siRNA 1 nM): 60% | decrease in gene expression of COL1A1 ([1]; siRNA 0.01 nM): 20% | decrease in gene expression of COL3A1 ([1]; siRNA 0.01 nM): 20% | decrease in gene expression of COL4A1 ([1]; siRNA 0.01 nM): 33% | decrease in gene expression of COL1A1 ([1]; siRNA 0.1 nM): 36% | decrease in gene expression of COL3A1 ([1]; siRNA 0.1 nM): 31% | decrease in gene expression of COL4A1 ([1]; siRNA 0.1 nM): 15% | decrease in gene expression of COL1A1 ([1]; siRNA 1 nM): 78% | decrease in gene expression of COL3A1 ([1]; siRNA 1 nM): 62% | decrease in gene expression of COL4A1 ([1]; siRNA 1 nM): 57%
